Like-named read-outs stand apart in the source and are kept apart here. Marks after values point to notes of the source that are not given here.
Key:
A. flavus 3357 = experiment: Heat-sensitizing antimicrobial bioassay (MFC) in A. flavus 3357; format: cell-based, Aspergillus flavus; conditions: for MFC: Aspergillus flavus, 3357, 0.025 h, read-out: minimum fungicidal concentration (MFC; >99.999% fungal death)
Method: Antimicrobial bioassay: The heat-sensitizing effect of twenty-eight compounds (phenolic derivatives, alkyl gallates, other food additives) (0.025, 0.050, 0.075, 0.100, 0.200, 0.300, 0.400, 0.500, 0.600 or 0.700 mM) and six drugs/fungicides (1, 2, 4, 8, 16, 32, 64 ppm) (Table 2) were examined using A. flavus 3357. Two hundred μL of fungal spores (1.5×10^5 to 2.1×10^5 CFU) dispersed in PBS was transferred into individual microfuge tube (1.5 mL vol.), where (1) “control” tube contained DMSO only, while (2) “treatment” tube contained test chemical/drug at respective concentration. The tubes were then treated with mild heat (57.5° C.) or maintained at room temperature (RT; 22.0° C.) for 90 seconds. After treatments, entire volume (200 μL) from each microfuge tube was spread onto fresh recovery PDA, and plates were incubated at respective temperatures. Fungal growth/survival was monitored after 48 hrs of incubation.
(§1) As described in A. flavus 3357 test (see above), microfuge tubes were treated with mild heat (57.5° C.) or maintained at RT (22.0° C.) (90 seconds). After heat treatments, entire volume (200 μL) from each microfuge tube was spread onto fresh recovery LB agar (for bacteria) or PDA (for fungi), and plates were incubated at the optimum temperature for respective microorganisms (i.e., 35° C. for Aspergillus, 37° C. for E. coli, 28° C. for Penicillium/A. tumefaciens, respectively). The growth/survival of test microorganisms were monitored after 48 to 72 hrs of incubation.
Determination of optimum temperature and time duration for screening heat sensitizers in A. flavus 3357: For the determination of the optimum temperature and time points for screening heat sensitizers, fungal (A. flavus 3357) survivability was tested by exposing fungal spores (1.5×10^5 to 2.1×10^5 CFU) to different temperatures (50, 55, 57.5, 60, 65° C.) and time points (0.5, 1.0, 1.5, 2.0, 2.5, 3.0, 3.5, 4.0, 4.5, 5.0 min).

A. parasiticus 2999 = experiment: Heat-sensitizing bioassay of OG (MFC) in other fungi; format: cell-based, Aspergillus parasiticus; conditions: 90 seconds
Method: as §1
(§2) Heat-sensitizing activity of OG against other fungi: Heat-sensitizing activity of OG was then investigated in other fungi (five Aspergillus strains and seven Penicillium strains) including fungicide resistant strains (i.e., P. expansum FR2, FR3 resistant to the conventional fungicide fludioxonil) (see Table 1).

A. parasiticus 5862 = experiment: as above; format: cell-based, Aspergillus parasiticus; conditions: 90 seconds
Method: as §1, §2

A. brasiliensis 16404 = experiment: as above; format: cell-based, Aspergillus brasiliensis; conditions: 90 seconds
Method: as §1, §2

P. griseofulvum 2159 = experiment: as above; format: cell-based, Penicillium griseofulvum; conditions: 90 seconds
Method: as §1, §2

E. coli JM109 = experiment: Heat-sensitizing bioassay of OG (MBC) in bacteria; format: cell-based; conditions: Escherichia coli, 90 seconds, read-out: minimum bactericidal concentration (MBC) of OG
Method: as §1
(§3) Heat-sensitizing activity of OG against bacteria (A. tumefaciens, E. coli): Heat-sensitizing activity of OG was also investigated against bacterial cells (i.e., E. coli and plant-pathogenic A. tumefaciens). […] (Table 4; FIG. 2).

A. tumefaciens 4212 = experiment: Heat-sensitizing bioassay of OG (MBC) in bacteria; format: cell-based, Agrobacterium tumefaciens; conditions: 90 seconds, read-out: minimum bactericidal concentration (MBC) of OG
Method: as §1, §3

[1] = tested on: Brassica rapa Pekinensis seeds; experiment: Seed disinfection bioassay, germination of treated cabbage seeds; format: in vivo; conditions: for No. of seedlings germinated: 12 seeds; for % Seed germination: mean over 20/50° C. and 20/30 min
Method: Antifungal seed disinfection bioassays using OG: Effect of OG plus mild heat hurdle technology on the level of seed sanitation (Brassica rapa Pekinensis; Chinese cabbage hybrid) was evaluated. Twelve cabbage seeds (per treatment), unsterilized, were transferred to each 1.5 mL microcentrifuge tube filled with 1 mL (final volume) distilled water, without or with A. flavus (1×10^5 CFU/mL): (1) No OG, no A. flavus inoculum, 20 or 30 min, 20° C.; (2) No OG, no A. flavus inoculum, 20 or 30 min, 50° C.; (3) No OG, w/A. flavus, 20 or 30 min, 20° C.; (4) No OG, w/A. flavus, 20 or 30 min, 50° C.; (5) OG 2 mM, w/A. flavus, 20 or 30 min, 20° C., (6) OG 2 mM, w/A. flavus, 20 or 30 min, 50° C., (7) OG 3 mM, w/A. flavus, 20 or 30 min, 20° C.; (8) OG 3 mM, w/A. flavus, 20 or 30 min, 50° C.; (9) OG 4 mM, w/A. flavus, 20 or 30 min, 20° C.; and (10) OG 4 mM, w/A. flavus, 20 or 30 min, 50° C. After each treatment, the treated seeds (total 12 seeds per treatment) were transferred to PDA and the plates were incubated in the dark at room temperature (RT; 20° C.) for seed germination. After seed germination, the growth of seedlings and fungal germination on the surfaces of germinated seeds were monitored up to 7 days (RT).
Seed disinfection via heat-sensitizing activity of OG: Heat-sensitizing capacity of OG was investigated further with crop seeds (Brassica rapa Pekinensis; Chinese cabbage hybrid) contaminated with A. flavus 3357 on the seed surfaces. OG (0, 2, 3, 4 mM) and mild heat (50° C.; Control: 20° C.) were co-applied for 20 to 30 minutes, and the rates of seed germination were also determined.

With CCCCCCCCOC(=O)c1cc(O)c(O)c(O)c1 [Octyl gallate] the “minimum fungicidal concentration (MFC; >99.999% fungal death)” value (A. flavus 3357) was 180* μM, the MFC (A. flavus 3357; 22.0° C. (RT), 90 seconds, PBS) was 250 µM and the MFC (A. flavus 3357) was 180 µM. The MFC (A. parasiticus 2999; Aspergillus parasiticus, 2999, 22.0° C.) was over 300 µM, the MFC (A. parasiticus 2999; Aspergillus parasiticus, 2999, 57.5° C.) was 200 µM and the MFC (A. parasiticus 5862; Aspergillus parasiticus, 5862, 22.0° C.) was over 300 µM. It also gave an MFC (A. parasiticus 5862; Aspergillus parasiticus, 5862, 57.5° C.) of 300 µM, an MFC (A. brasiliensis 16404; Aspergillus brasiliensis, 16404, 22.0° C.) of over 300 µM and an MFC (A. brasiliensis 16404; Aspergillus brasiliensis, 16404, 57.5° C.) of 160 µM. It also gave an MFC (P. griseofulvum 2159; Penicillium griseofulvum, 2159, 22.0° C.) of over 300 µM, an MFC (P. griseofulvum 2159; Penicillium griseofulvum, 2159, 57.5° C.) of 180 µM and an MBC (E. coli JM109; JM109, 22° C.) of 300 µM. It also gave an MBC (E. coli JM109; JM109, 57.5° C.) of 75 µM, an MBC (A. tumefaciens 4212; Agrobacterium tumefaciens, 4212, 22° C.) of 200 µM and an MBC (A. tumefaciens 4212; Agrobacterium tumefaciens, 4212, 57.5° C.) of 75 µM. The “No. of seedlings germinated” value ([1]; OG 2 mM, 20° C., 20 min) was 12, the “No. of seedlings germinated” value ([1]; OG 2 mM, 20° C., 30 min) was 12 and the “No. of seedlings germinated” value ([1]; OG 2 mM, 50° C., 20 min) was 12. For the same compound, the “No. of seedlings germinated” value ([1]; OG 2 mM, 50° C., 30 min) was 10, the “% Seed germination” value ([1]; OG 2 mM) was 96 ± 8% and the “No. of seedlings germinated” value ([1]; OG 3 mM, 20° C., 20 min) was 12. The “No. of seedlings germinated” value ([1]; OG 3 mM, 20° C., 30 min) was 12, the “No. of seedlings germinated” value ([1]; OG 3 mM, 50° C., 20 min) was 12 and the “No. of seedlings germinated” value ([1]; OG 3 mM, 50° C., 30 min) was 11. For the same compound, the “% Seed germination” value ([1]; OG 3 mM) was 98 ± 4%, the “No. of seedlings germinated” value ([1]; OG 4 mM, 20° C., 20 min) was 12 and the “No. of seedlings germinated” value ([1]; OG 4 mM, 20° C., 30 min) was 12. For the same compound, the “No. of seedlings germinated” value ([1]; OG 4 mM, 50° C., 20 min) was 11, the “No. of seedlings germinated” value ([1]; OG 4 mM, 50° C., 30 min) was 11 and the “% Seed germination” value ([1]; OG 4 mM) was 96 ± 5%. The “germination rate of the crop seeds compared to the control” value ([1]; OG as low as 3 mM, mild heat 50° C., 20 min) was “not affected”.

Source: patent US11950596B2, “Methods of protecting seeds from oxidants and microorganisms” (The United States of America, as represented by the …, priority 2020, dated 2024)
